According to patent publication US9365618B2, “Synthetic peptide that induces expression of TNF receptor 2 and use thereof” (TOAGOSEI CO. LTD., priority 2011, dated 2016):
Where no end group is shown, it is not given here.

System: TNFR2
Experiment: TNFR2 expression-inducing activity against neuroblasts (neuro-2a, fluorescent antibody technique)
Assay type: cell-based, mouse
Conditions: retinoic acid-differentiated neuro-2a cells, peptide 5 μM, two days incubation, control group set as 1
Protocol: With respect to each sample obtained in Example 1, the TNFR2 expression-inducing activity was tested against neuroblasts. The control group was supplied with no peptides. The test details are described below.
As the cells under test, a cell line (neuro-2a) established from a commercial mouse neuroblastoma was used. The cells were cultured beforehand in a DMEM medium (i.e., a Dulbecco MEM (DMEM medium, a Gibco product) containing 10% fetal bovine serum (FBS, a Gibco product), 2 mM of L-glutamine, 50 unit/mL of penicillin, and 50 μg/mL of streptomycin), and the number of cells per well in a 96-hole(well) plate was adjusted to approximately 5×10^3. The volume of the medium here was 100 μL/well. […]
Subsequently, the stock solution of one of the samples was added to the wells for each sample group to a peptide concentration in each well of 5 μM. […] After samples (synthetic peptides) were added as described above and continuously incubated further for two days, the expression/induction of TNFR1 and TNFR2 was evaluated according to the fluorescent antibody technique in the same manner as Example 2.
With the level of TNFR1 expression (i.e. fluorescence intensity) of the control group set as 1, relative values are shown. […] With the level of TNFR2 expression (i.e. fluorescence intensity) of the control group set as 1, relative values are shown.

## KKRTLRKNDRKKR (KKRTLRKNDRKKR-NH2; listed as Homo sapiens) [Sample 17, NoLS of human LIMK2]
  TNFR2 expression level (relative fluorescence intensity): at least 1.9
